Test results: article PMC10623575, “Discovery of Potent and Selective CB2 Agonists Utilizing a Function-Based Computational Screening Protocol” (ACS Chemical Neuroscience, 2023)
Where two headings read alike, the source gives them in different places.

What was measured:
CB2 receptor = molecular target: T1, CB2 receptor (Homo sapiens, UniProt P34972); assay: Calcium mobilization assay, agonist mode, CHO expressing CB2 and Gα16; type: cell-based; details: for SI, selectivity index for the CB2, SI = EC50(CB1)/EC50(CB2): agonist mode; for CB1 and CB2 biological activity (in words): CB1 and CB2 calcium mobilization assays, up to 10 μM
T1 construct: expressed in transfected cells
Procedure: (§1) Chinese hamster ovarian (CHO) cells collected from the American Type Culture Collection were maintained in Ham’s F-12K (Kaighn’s) supplemented with 100 mg/L streptomycin, 100 mg/L penicillin, and 10% fetal bovine serum (FBS) in a humidified atmosphere of 5% CO2 at 37 °C. CHO cells were co-transfected with plasmids encoding CB1 or CB2 and Gα16 by electroporation. To establish stable cell lines, transfected cells were seeded on 10 cm dishes with 40 μg/mL blasticidin and 1 mg/mL G418 in culture medium after 24 h. The selection medium was substituted once every 3 days until colonies formed. A solitary colony was obtained, propagated, and assessed using a calcium mobilization assay to verify the function and expression of the transfected genes.
(§2) 3 × 10^4 cells/well were employed to seed cells onto 96-well plates, which were subsequently incubated throughout the night. […] For antagonist mode, the extra dye was washed out and 50 μL of HBSS with test compounds, DMSO (negative control), or AM630 (positive control) was introduced. […] To be noticed, each experiment has been independently replicated three times, with three repetitions and eight gradients each time.
(§3) The collected data were processed with GraphPad Prism software (GraphPad). […] Means ± SEM were computed utilizing this software. The analyses were evaluated by the Student t test. When the p value is smaller than 0.05, the result is statistically significant.

CB1 receptor = CB1 receptor (Homo sapiens, UniProt P21554); assay: Calcium mobilization assay, agonist mode, CHO expressing CB1 and Gα16; type: cell-based
Procedure: as §1, §2, §3

[1] = agonist activity, CHO expressing CB2, three independent assays, mean ± SEM, read-out: CB2 EC50
[2] = single independent experiment, replicate 1, read-out: CB2 agonist(μM) replicate 1
[3] = single independent experiment, replicate 2, read-out: CB2 agonist(μM) replicate 2
[4] = single independent experiment, replicate 3, read-out: CB2 agonist(μM) replicate3
[5] = agonist activity, CHO expressing CB1, mean ± SEM, read-out: CB1 EC50

T1 sequence (P34972 whole entry): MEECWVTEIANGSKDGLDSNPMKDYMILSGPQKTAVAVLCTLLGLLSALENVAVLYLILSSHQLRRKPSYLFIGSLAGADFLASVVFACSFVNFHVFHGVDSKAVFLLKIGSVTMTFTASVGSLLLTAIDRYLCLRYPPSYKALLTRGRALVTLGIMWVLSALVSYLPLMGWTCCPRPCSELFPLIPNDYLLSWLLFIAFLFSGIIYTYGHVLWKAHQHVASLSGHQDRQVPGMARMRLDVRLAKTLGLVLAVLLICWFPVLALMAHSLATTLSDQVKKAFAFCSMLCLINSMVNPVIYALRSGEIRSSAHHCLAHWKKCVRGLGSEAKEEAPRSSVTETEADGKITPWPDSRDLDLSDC
CB1 receptor, sequence (P21554 whole entry): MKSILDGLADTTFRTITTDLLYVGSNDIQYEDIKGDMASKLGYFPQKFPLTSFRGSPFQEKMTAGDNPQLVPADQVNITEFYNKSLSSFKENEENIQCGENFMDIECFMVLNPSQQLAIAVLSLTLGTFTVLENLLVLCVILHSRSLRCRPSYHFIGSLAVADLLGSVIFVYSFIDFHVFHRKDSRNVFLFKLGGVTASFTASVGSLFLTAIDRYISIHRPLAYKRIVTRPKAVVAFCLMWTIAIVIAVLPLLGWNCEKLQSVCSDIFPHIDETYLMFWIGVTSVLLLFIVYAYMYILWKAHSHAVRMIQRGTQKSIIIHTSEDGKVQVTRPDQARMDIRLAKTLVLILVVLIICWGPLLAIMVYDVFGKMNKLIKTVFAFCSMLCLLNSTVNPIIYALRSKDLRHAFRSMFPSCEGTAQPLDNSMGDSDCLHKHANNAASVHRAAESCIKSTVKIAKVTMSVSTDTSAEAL

| Structure (SMILES) | EC50 (CB2 receptor; [1]) [µM] | SI, selectivity index for the CB2, SI = EC50(CB1)/EC50(CB2) (CB2 receptor) | EC50 (CB2 receptor; [2]) [µM] | EC50 (CB2 receptor; [3]) [µM] | EC50 (CB2 receptor; [4]) [µM] | EC50 (CB1 receptor; [5]) [µM] | further results |
| --- | --- | --- | --- | --- | --- | --- | --- |
| CC(C)N1C(=O)SC(=Cc2ccccc2OCc2ccccc2C#N)C1=O [Compound 1, 2-((2-((3-Isopropyl-2,4-dioxothiazolidin-5-ylidene)methyl)phenoxy)methyl) Benzonitrile] | 3.12 ± 2.22 | >3 | 1.75 | 7.47 | 0.139 | > 10 | response against CHO–CB2 by calcium assay (CB2 receptor; 10 μM): > 40%; bioactivity against CB1 (in words) (CB1 receptor; 10 μM): no bioactivity |
| CCCCN1C(=O)SC(=Cc2ccccc2OCc2ccccc2C#N)C1=O [Compound 4, 2-((2-((3-Butyl-2,4-dioxothiazolidin-5-ylidene)methyl)phenoxy)methyl)benzo Nitrile] | > 10 | – | – | – | – | > 10 | – |
| N#Cc1ccccc1COc1ccccc1C=C1SC(=O)N(C2CCCC2)C1=O [Compound 5, 2-((2-((3-Cyclopentyl-2,4-dioxothiazolidin-5-ylidene)methyl)phenoxy)methyl) Benzonitrile] | 2.26 ± 0.48 | >4 | 1.67 | 1.92 | 3.2 | > 10 | – |
| CC(C)N1C(=O)SC(=Cc2ccccc2OCCN2CCOCC2)C1=O [Compound 8, 3-Isopropyl-5-(2-(2-morpholinoethoxy)benzylidene) Thiazolidine-2,4-dione] | – | 8 | – | – | – | – | EC50 (CB2 receptor; CB2 EC50, agonist activity, CHO expressing CB2, three independent assays, mean ± SEM): 0.09 ± 0.07 µM; EC50 (CB2 receptor; CB2 agonist(μM) replicate 1, single independent experiment, replicate 1): 0.227 µM; EC50 (CB2 receptor; CB2 agonist(μM) replicate 2, single independent experiment, replicate 2): 0.026 µM; EC50 (CB2 receptor; CB2 agonist(μM) replicate3, single independent experiment, replicate 3): 0.022 µM; EC50 (CB1 receptor; CB1 EC50, agonist activity, CHO expressing CB1, mean ± SEM): 0.75 ± 0.48 µM; EC50 (CB1 receptor; CB1 agonist(μM) replicate 1, single independent experiment, replicate 1): 0.455 µM; EC50 (CB1 receptor; CB1 agonist(μM) replicate 2, single independent experiment, replicate 2): 0.109 µM; EC50 (CB1 receptor; CB1 agonist(μM) replicate3, single independent experiment, replicate 3): 1.7 µM |
| COc1cc(COc2ccccc2C=C2SC(=O)N(C(C)C)C2=O)cc(OC)c1 [Compound 9, 5-(2-((3,5-Dimethoxybenzyl)oxy)benzylidene)-3-isopropylthiazolidine-2,4-dione] | > 10 | – | – | – | – | > 10 | CB1 and CB2 biological activity (in words) (CB2 receptor): do not show biological activities |
| COc1cc(COc2ccccc2C=C2SC(=O)N(CC(C)C)C2=O)cc(OC)c1 [Compound 11, 5-(2-((3,5-Dimethoxybenzyl)oxy)benzylidene)-3-isobutylthiazolidine-2,4-dione] | > 10 | – | – | – | – | > 10 | – |

Further lines, with some results ahead:

| EC50 (CB2 receptor; [1]) [µM] | SI, selectivity index for the CB2, SI = EC50(CB1)/EC50(CB2) (CB2 receptor) | EC50 (CB2 receptor; [2]) [µM] | EC50 (CB2 receptor; [3]) [µM] | EC50 (CB2 receptor; [4]) [µM] | EC50 (CB1 receptor; [5]) [µM] | Structure (SMILES) | further results |
| --- | --- | --- | --- | --- | --- | --- | --- |
| 3.22 ± 2.67 | >3 | 0.43 | 8.56 | 0.68 | > 10 | CC(C)CN1C(=O)SC(=Cc2ccccc2OCc2ccccc2C#N)C1=O [Compound 2, 2-((2-((3-Isobutyl-2,4-dioxothiazolidin-5-ylidene)methyl)phenoxy)methyl) Benzonitrile] | – |
| > 10 | – | – | – | – | > 10 | CCCN1C(=O)SC(=Cc2ccccc2OCc2ccccc2C#N)C1=O [Compound 3, 2-((2-((2,4-Dioxo-3-propylthiazolidin-5-ylidene)methyl)phenoxy)methyl) Benzo Nitrile] | – |
| 0.37 ± 0.26 | >27 | 0.188 | 0.026 | 0.886 | > 10 | CC(C)N1C(=O)SC(=Cc2ccccc2OCc2ccccc2F)C1=O [Compound 6, 5-(2-((2-Fluorobenzyl)oxy)benzylidene)-3-isopropylthiazolidine-2,4-dione] | – |
| > 10 | – | – | – | – | > 10 | CC(C)N1C(=O)SC(=Cc2ccccc2OCc2cccc(Br)c2)C1=O [Compound 7, 5-(2-((3-Bromobenzyl)oxy)benzylidene)-3-isopropylthiazolidine-2,4-dione] | CB1 and CB2 biological activity (in words) (CB2 receptor): do not show biological activities |
| 1.6 ± 0.21 | >6 | 1.78 | 1.18 | 1.83 | > 10 | CC(C)CN1C(=O)SC(=Cc2ccccc2OCc2ccccc2F)C1=O [Compound 10, 5-(2-((2-Fluorobenzyl)oxy)benzylidene)-3-isobutylthiazolidine-2,4-dione] | – |
